These results are taken from ChEMBL document CHEMBL2021798, “Discovery of new quinoline ether inhibitors with high affinity and selectivity for PDGFR tyrosine kinases” (Bioorg Med Chem Lett, 2012).

The term logD denotes the decadic logarithm of the distribution of all forms, ionised or not, between an organic phase and buffer at a given pH. Low readings indicate a more hydrophilic compound, high ones a more lipophilic compound. Broadly, the pKa is the negative logarithm of the acid dissociation constant. The low end stands for a stronger acid or weaker base, the high end for a weaker acid or stronger base. Broadly, the CL/F is the apparent clearance, not corrected for the fraction that reaches the circulation. Usually bioavailability stands for the share of a dose that reaches the circulation, judged against a reference dose that is usually intravenous. Low values mean poor availability, high ones good availability.

A short description of series [1]: Lipophilicity, log D of the compound. It is filed as physicochemical. The conditions noted are these: octanol/water.
A short description of series [2]: Dissociation constant, pKa of the compound. Format: physicochemical.
A short description of series [3]: Clearance in rat at 3 mg/kg, po. Format: ADME, organism-based. The arrangement: dose 3 mg/kg, route oral. The conditions noted are these: in vivo.
The nature of series [4]: Terminal half life in dog at 3 mg/kg, iv. Format: ADME, organism-based, Canis lupus familiaris. The arrangement: dose 3 mg/kg, route intravenous. The conditions noted are these: in vivo, read-out: beta t1/2 (converted).
A short description of series [5]: Clearance in dog at 3 mg/kg, po. Format: ADME, organism-based, Canis lupus familiaris. The arrangement: dose 3 mg/kg, route oral. The settings on record: in vivo.
The test system of series [6] is Rattus norvegicus. Briefly: Volume of distribution at steady state in rat at 3 mg/kg, po. The settings on record: in vivo. Also on record: dose 3 mg/kg, route oral. It is filed as ADME, organism-based.
The subject of series [7] is Canis familiaris. As to the kind of experiment: Volume of distribution at steady state in dog at 3 mg/kg, po. The conditions noted are these: in vivo. Also on record: dose 3 mg/kg, route oral. Format: ADME, organism-based, Canis lupus familiaris.
Series [8] in a line: Oral bioavailability in dog at 3 mg/kg. Format: ADME, organism-based, Canis lupus familiaris. The settings on record: in vivo.
Series [9] can be described thus: Oral bioavailability in rat at 3 mg/kg. The conditions noted are these: in vivo. Format: ADME, organism-based.
A short description of series [10]: Terminal half life in rat at 3 mg/kg, iv. Format: ADME, organism-based. The arrangement: dose 3 mg/kg, route intravenous. The conditions noted are these: in vivo, read-out: beta t1/2 (converted).
The test system of series [11] is Canis familiaris. As to the kind of experiment: Volume of distribution at steady state in dog at 20 mg/kg, po. The conditions noted are these: in vivo. Also on record: dose 20 mg/kg, route oral. It is filed as ADME, organism-based, Canis lupus familiaris.
Series [12] relates to Rattus norvegicus. Briefly: Volume of distribution at steady state in rat at 20 mg/kg, po. It is filed as ADME, organism-based. The arrangement: dose 20 mg/kg, route oral. The conditions noted are these: in vivo.
A short description of series [13]: Terminal half life in dog at 20 mg/kg, iv. It is filed as ADME, organism-based, Canis lupus familiaris. The arrangement: dose 20 mg/kg, route intravenous. The settings on record: in vivo, read-out: beta t1/2 (converted).
Series [14] is described as follows: Terminal half life in rat at 20 mg/kg, iv. It is filed as ADME, organism-based. Also on record: dose 20 mg/kg, route intravenous. The settings on record: in vivo, read-out: beta t1/2 (converted).
Series [15] can be described thus: Clearance in dog at 20 mg/kg, po. Format: ADME, organism-based, Canis lupus familiaris. The arrangement: dose 20 mg/kg, route oral. The conditions noted are these: in vivo.
Series [16] can be described thus: Oral bioavailability in dog at 20 mg/kg. Format: ADME, organism-based, Canis lupus familiaris. The settings on record: in vivo.
Series [17] in a line: Oral bioavailability in rat at 20 mg/kg. It is filed as ADME, organism-based. The conditions noted are these: in vivo.
Series [18] is described as follows: Clearance in rat at 20 mg/kg, po. Also on record: dose 20 mg/kg, route oral. It is filed as ADME, organism-based. The conditions noted are these: in vivo.

`CCOc1cc2nccc(Oc3cnc(CC(=O)Nc4n[nH]c(CC)c4C)c(OC)c3)c2cc1OC`: the logD in [1] was 3.3. The pKa in [2] is 6. The CL/F stood at 9 mL/min/kg in series [3] and 11.5 mL/min/kg in series [5]. For the same compound, the half-life in [4] was 3.4 h; in series [10], 1.6 h. In addition, the Vdss in series [6] was determined as 0.7 L/kg; in [7], 2 L/kg. Further, the bioavailability worked out at 100% in series [8] and 43% in series [9].
Regarding `COc1ccc2c(Oc3ccc(CC(=O)Nc4cn(C)nc4C)c(OC)c3)ccnc2c1`, the Vdss in series [11] turned out to be 1.4 L/kg; in series [12], 0.7 L/kg. In addition, the figures for the half-life in [13] and in series [14] were 8.6 h and 3.7 h, respectively. Moreover, the CL/F in series [15] worked out at 2.4 mL/min/kg.
Take `COc1ccc2c(Oc3ccc(CC(=O)Nc4cn(C)nc4C)c(OC)c3)ccnc2c1.O=S(=O)(O)O`: the Vdss turned out to be 1.8 L/kg in series [11] and 0.7 L/kg in [12]. Moreover, the pH-dependent lipophilicity (logD) in series [1] was found to be 3.5. The pKa in series [2] is 6.3. Further, the bioavailability came out at 59% in series [16] and 78% in series [17]. Further, the figures for the half-life in series [13] and in series [14] were 10.6 h and 3.7 h, respectively. Besides, the CL/F in series [15] amounted to 2.5 mL/min/kg; in series [18], 5.7 mL/min/kg.
